Experimental findings from patent publication US20120214847A1, “2-[1-PHENYL-5-HYDROXY-4a-SUBSTITUTED-HEXAHYDROCYCLOPENTA[F]INDAZOL-5-YL]ETHYL PHENYL DERIVATIVES AS GLUCOCORTICOID RECEPTOR LIGANDS” (Merck Sharp & Dohme Corp., priority 2009, published 2012) are described below.

This assay addresses T1, glucocorticoid receptor (Homo sapiens, UniProt P04150).
T1 construct: endogenous in cells; host or cells: HeLa (ATCC) cell lysate supernatant
T1 sequence (P04150 1-777): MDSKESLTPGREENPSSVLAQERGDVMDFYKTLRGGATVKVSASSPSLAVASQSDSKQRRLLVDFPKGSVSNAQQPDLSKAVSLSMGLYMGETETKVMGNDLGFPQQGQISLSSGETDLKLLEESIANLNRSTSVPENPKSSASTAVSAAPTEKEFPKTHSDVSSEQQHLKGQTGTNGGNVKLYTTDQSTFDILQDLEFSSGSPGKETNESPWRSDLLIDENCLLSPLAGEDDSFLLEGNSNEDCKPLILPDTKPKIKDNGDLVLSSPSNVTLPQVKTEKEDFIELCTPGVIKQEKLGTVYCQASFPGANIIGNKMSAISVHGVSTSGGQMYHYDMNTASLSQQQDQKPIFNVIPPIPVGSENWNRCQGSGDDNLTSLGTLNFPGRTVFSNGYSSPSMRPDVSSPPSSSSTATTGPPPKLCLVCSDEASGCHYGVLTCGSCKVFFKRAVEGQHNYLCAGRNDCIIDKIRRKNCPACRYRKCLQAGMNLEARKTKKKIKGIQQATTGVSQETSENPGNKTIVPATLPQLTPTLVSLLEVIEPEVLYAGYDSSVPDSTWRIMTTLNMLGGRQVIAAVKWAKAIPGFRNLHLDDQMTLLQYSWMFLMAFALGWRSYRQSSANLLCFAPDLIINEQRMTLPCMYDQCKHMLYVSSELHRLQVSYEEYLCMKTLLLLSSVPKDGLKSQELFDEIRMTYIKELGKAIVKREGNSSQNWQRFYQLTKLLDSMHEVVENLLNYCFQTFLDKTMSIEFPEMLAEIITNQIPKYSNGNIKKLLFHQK
The assay is described as follows: Ligand binding assay (GRBind), 3H-dexamethasone displacement in HeLa cell lysate. As to conditions: 3H-DEX tracer. An outline of the steps:
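Cytosolic supernatant from HeLa cells in TEGM buffer (pH 7.2, with molybdate) was incubated overnight at 4 °C with 3H-dexamethasone (6 nM trace solution) and serially diluted compound, with 2% ethanol. Bound receptor was captured on hydroxylapatite, filtered and counted by scintillation. IC50s were calculated using dexamethasone as reference.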
Usually Ki stands for a measure of affinity in units of concentration, obtained from inhibition or displacement. `N#Cc1cccnc1CC[C@]1(O)CCC2=Cc3c(cnn3-c3ccc(F)cc3)C[C@@]21C1CC1` [Example 31, 2-{2-[(4aR,5R)-4a-Cyclopropyl-1-(4-fluorophenyl)-5-hydroxy-1,4,4a,5,6,7-hexahydrocyclopenta[f]indazol-5-yl]ethyl}pyridine-3-carbonitrile] registered an inhibitory constant (Ki) of 1.58 nM.
Under `CC[C@]12Cc3cnn(-c4ccc(F)cc4)c3C=C1CC[C@@]2(O)CCc1ccccc1S(=O)(=O)C(C)C` [Example 40, (4aS,5R)-4a-Ethyl-1-(4-fluorophenyl)-5-{2-[2-(propan-2-ylsulfonyl)phenyl]ethyl}-1,4,4a,5,6,7-hexahydrocyclopenta[f]indazol-5-ol] stands 2.45 nM.
Next, `CC[C@]12Cc3cnn(-c4ccc(F)cc4)c3C=C1CC[C@@]2(O)CCc1cccc(OC)c1C(N)=O` [Example 37, 2-{2-[(4aS,5R)-4a-Ethyl-1-(4-fluorophenyl)-5-hydroxy-1,4,4a,5,6,7-hexahydrocyclopenta[f]indazol-5-yl]ethyl}-6-methoxybenzamide]: 2.02 nM.
Under `NC(=O)[C@H](F)c1c(F)cccc1CC[C@]1(O)CCC2=Cc3c(cnn3-c3ccc(F)cc3)C[C@@]21C1CC1` [Example 57, (2R)-2-(2-{2-[(4aR,5R)-4a-Cyclopropyl-1-(4-fluorophenyl)-5-hydroxy-1,4,4a,5,6,7-hexahydrocyclopenta[f]indazol-5-yl]ethyl}-6-fluorophenyl)-2-fluoroethanamide] stands 1.5 nM.
`N#Cc1c(F)cccc1CC[C@]1(O)CCC2=Cc3c(cnn3-c3ccccc3)C[C@@]21C1CC1` [Example 28, 2-{2-[(4aR,5R)-4a-Cyclopropyl-5-hydroxy-1-phenyl-1,4,4a,5,6,7-hexahydrocyclopenta[f]indazol-5-yl]ethyl}-6-fluorobenzonitrile] had a Ki of 1.24 nM.
The molecule `CC[C@]12Cc3cnn(-c4ccc(F)cc4)c3C=C1CC[C@@]2(O)CC(O)c1ncccc1Cl` (stereo partly drawn) [Example 70, (4aS,5R)-5-[2-(3-Chloropyridin-2-yl)-2-hydroxyethyl]-4a-ethyl-1-(4-fluorophenyl)-1,4,4a,5,6,7-hexahydrocyclopenta[f]indazol-5-ol] showed a Ki of 7.06 nM. Against the preceding molecule, the Ki is about 5.7-fold higher.
The molecule `NC(=O)Cc1c(F)cccc1CC[C@]1(O)CCC2=Cc3c(cnn3-c3ccc(F)cc3)C[C@@]21C1CC1` [Example 61, 2-(2-{2-[(4aR,5R)-4a-Cyclopropyl-1-(4-fluorophenyl)-5-hydroxy-1,4,4a,5,6,7-hexahydrocyclopenta[f]indazol-5-yl]ethyl}-6-fluorophenyl)acetamide] registered an inhibition constant (Ki) of 2.08 nM.
`CC[C@]12Cc3cnn(-c4ccc(F)cc4)c3C=C1CC[C@@]2(O)CCc1nccc(C2CC2)c1C(=O)OC` [Example 41, Methyl 4-cyclopropyl-2-{2-[(4aS,5R)-4a-ethyl-1-(4-fluorophenyl)-5-hydroxy-1,4,4a,5,6,7-hexahydrocyclopenta[f]indazol-5-yl]ethyl}pyridine-3-carboxylate] had a Ki of 2.63 nM.
Under `CC[C@]12Cc3cnn(-c4ccc(F)cc4)c3C=C1CC[C@@]2(O)CCc1nccc(OC)c1CC(N)=O` [Example 64, 2-(2-{2-[(4aS,5R)-4a-Ethyl-1-(4-fluorophenyl)-5-hydroxy-1,4,4a,5,6,7-hexahydrocyclopenta[f]indazol-5-yl]ethyl}-4-methoxypyridin-3-yl)acetamide] stands 11.5 nM; under `O[C@@]1(CCc2cc(C(F)(F)F)ccn2)CCC2=Cc3c(cnn3-c3ccc(F)cc3)C[C@@]21C1CC1` [Example 32, (4aR,5R)-4a-Cyclopropyl-1-(4-fluorophenyl)-5-{2-[4-(trifluoromethyl)pyridin-2-yl]ethyl}-1,4,4a,5,6,7-hexahydrocyclopenta[f]indazol-5-ol], 2.26 nM; under `CC[C@]12Cc3cnn(-c4ccc(F)cc4)c3C=C1CC[C@@]2(O)CCc1ncccc1S(=O)(=O)C(C)C` [Example 62, (4aS,5R)-4a-Ethyl-1-(4-fluorophenyl)-5-{2-[3-(propan-2-ylsulfonyl)pyridin-2-yl]ethyl}-1,4,4a,5,6,7-hexahydrocyclopenta[f]indazol-5-ol], 4.06 nM.
Molecule `NC(=O)Cc1ccccc1CC[C@]1(O)CCC2=Cc3c(cnn3-c3ccc(F)cc3)C[C@@]21C1CC1` [Example 56, 2-(2-{2-[(4aR,5S)-4a-Cyclopropyl-1-(4-fluorophenyl)-5-hydroxy-1,4,4a,5,6,7-hexahydrocyclopenta[f]indazol-5-yl]ethyl}phenyl)acetamide] had a Ki of 1.61 nM.
Molecule `NC(=O)c1ccccc1CC[C@]1(O)CCC2=Cc3c(cnn3-c3ccc(F)cc3)C[C@@]21C1CC1` [Example 23, 2-{2-[(4aR,5R)-4a-Cyclopropyl-1-(4-fluorophenyl)-5-hydroxy-1,4,4a,5,6,7-hexahydrocyclopenta[f]indazol-5-yl]ethyl}benzamide] yielded an inhibition constant (Ki) of 1.8 nM.
Next, `CC[C@]12Cc3cnn(-c4ccccc4)c3C=C1CC[C@@]2(O)CCc1ccc(F)cc1C(N)=O` [Example 6]: 3.17 nM; `NC(=O)c1c(C(F)(F)F)ccnc1CC[C@]1(O)CCC2=Cc3c(cnn3-c3ccc(F)cc3)C[C@@]21C1CC1` [Example 55, 2-{2-[(4aR,5R)-4a-Cyclopropyl-1-(4-fluorophenyl)-5-hydroxy-1,4,4a,5,6,7-hexahydrocyclopenta[f]indaozol-5-yl]ethyl}-4-(trifluoromethyl)pyridine-3-carboxamide]: 2.24 nM; `CC[C@]12Cc3cnn(-c4cccnc4)c3C=C1CC[C@@]2(O)CCc1ccc(F)cc1C#N` [Example 9, 2-{2-[(4aS,5R)-4a-Ethyl-5-hydroxy-1-(pyridin-3-yl)-1,4,4a,5,6,7-hexahydrocyclopenta[f]indazol-5-yl]ethyl}-5-fluorobenzonitrile]: 1.99 nM.
Next, `CC[C@]12Cc3cnn(-c4cccnc4)c3C=C1CC[C@@]2(O)CCc1ccccc1C(N)=O` [Example 13, 2-{2-[(4aS,5R)-4a-Ethyl-5-hydroxy-1-(pyridin-3-yl)-1,4,4a,5,6,7-hexahydrocyclopenta[f]indazol-5-yl]ethyl}benzamide]: 28.4 nM; `CCS(=O)(=O)c1ccccc1CC[C@]1(O)CCC2=Cc3c(cnn3-c3ccc(F)cc3)C[C@@]21C1CC1` [Example 59, (4aR,5R)-4a-Cyclopropyl-5-{2-[2-(ethylsulfonyl)phenyl]ethyl}-1-(4-fluorophenyl)-1,4,4a,5,6,7-hexahydrocyclopenta[f]indazol-5-ol]: 1.36 nM; `CC[C@]12Cc3cnn(-c4ccccc4)c3C=C1CC[C@@]2(O)CC(O)c1ccccn1` (single isomer, unassigned) [Example 67a]: 11.3 nM.
As for `CC[C@]12Cc3cnn(-c4ccc(F)cc4)c3C=C1CC[C@@]2(O)CCc1ccccn1` [Example 16, (4aS,5R)-4a-Ethyl-1-(4-fluorophenyl)-5-[2-(pyridin-2-yl)ethyl]-1,4,4a,5,6,7-hexahydrocyclopenta[f]indazol-5-ol], the inhibition constant Ki worked out at 2.22 nM.
`CC[C@]12Cc3cnn(-c4ccc(F)cc4)c3C=C1CC[C@@]2(O)CC(O)c1ncccc1F` (stereo partly drawn) [Example 77, (4aS,5R)-4a-Ethyl-1-(4-fluorophenyl)-5-[2-(3-fluoropyridin-2-yl)-2-hydroxyethyl]-1,4,4a,5,6,7-hexahydrocyclopenta[f]indazol-5-ol] showed a Ki of 4.39 nM.
Under `CC[C@]12Cc3cnn(-c4ccc(F)cc4)c3C=C1CC[C@@]2(O)CCc1ncccc1F` [Example 17, (4aS,5R)-4a-Ethyl-1-(4-fluorophenyl)-5-[2-(3-fluoropyridin-2-yl)ethyl]-1,4,4a,5,6,7-hexahydrocyclopenta[f]indazol-5-ol] stands 1.44 nM; under `CC[C@]12Cc3cnn(-c4ccc(F)cc4)c3C=C1CC[C@@]2(O)CC(O)c1ncccc1F` (stereo partly drawn) [Example 76, (4aS,5R)-4a-Ethyl-1-(4-fluorophenyl)-5-[2-(3-fluoropyridin-2-yl)-2-hydroxyethyl]-1,4,4a,5,6,7-hexahydrocyclopenta[f]indazol-5-ol], 20.8 nM; under `CC[C@]12Cc3cnn(-c4ccc(F)cc4)c3C=C1CC[C@@]2(O)CC(O)c1ccc(F)cn1` (single isomer, unassigned) [Example 69a], 4.41 nM.
`NC(=O)c1c(C2CC2)ccnc1CC[C@]1(O)CCC2=Cc3c(cnn3-c3ccc(F)cc3)C[C@@]21C1CC1` [Example 49, 4-Cyclopropyl-2-{2-[(4aR,5R)-4a-cyclopropyl-1-(4-fluorophenyl)-5-hydroxy-1,4,4a,5,6,7-hexahydrocyclopenta[f]indazol-5-yl]ethyl}pyridine-3-carboxamide] had a Ki of 2.7 nM.
`NC(=O)c1cc(F)cnc1CC[C@]1(O)CCC2=Cc3c(cnn3-c3ccc(F)cc3)C[C@@]21C1CC1` [Example 4, 2-{2-[(4aR,5R)-4a-Cyclopropyl-1-(4-fluorophenyl)-5-hydroxy-1,4,4a,5,6,7-hexahydrocyclopenta[f]indazol-5-yl]ethyl}-5-fluoropyridine-3-carboxamide] had an inhibition constant (Ki) of 1.98 nM.
